Laboratory results taken from patent US9217014B2, “Antifungal agents and uses thereof” (Cidara Therapeutics, Inc., priority 2011, dated 2015).
Read-outs that look alike come from different tables or passages of the source.

Key:
C. albicans R303 = assay: mouse candidiasis infection model, IP administration, kidney fungal burden; assay type: in vivo; details: for overall performance in reducing C. albicans CFUs in the kidneys of the mice: conclusion over all runs
Summary of the method: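 Female CD-1 mice rendered neutropenic with IP cyclophosphamide 150 mg/kg at days −4 and −1. Mice infected IV via tail vein with C. albicans R303, then given test compounds IP 2 h post-infection. Kidney fungal burden determined as CFU by plate counts; values are means of four mice.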

[1] = Pharmacokinetics in beagle dogs, intravenous; assay type: in vivo; details: for CI / half-life / Vd: 1.4 mg/kg intravenous slow bolus, mean ± SEM, n = 4 beagle dogs; for half-life / Vd: dog; for half-life: read-out: T ½ (converted); for Vd: read-out: Vz
Experimental: The test articles were administered to beagle dogs weighing approximately 6-10 kg. Each test article was dosed at 1.4 mg/kg in aqueous saline (with or without 0.5% Tween) over course of 1-10 minutes. […] The dogs were fasted at least 12 hours prior to each dosing and offered food after the 4-hour blood sample was taken; water was withheld for 1 hour prior to and 4 hours following each dosing event. The dose for each animal was based on its most recent body weight. The test article was injected intravenously via a catheter placed in the cephalic vein as a slow bolus.
Blood was collected via the jugular vein. All blood samples (˜1 mL each) were collected into K3EDTA tubes. Following blood collection, the samples were immediately inverted several times and were held on wet ice pending centrifugation. The samples were centrifuged within ˜30 minutes of collection under refrigeration (˜5° C. for ˜10 minutes at ˜2000 g) to obtain plasma. The plasma was frozen immediately on dry ice after separation. The plasma samples were stored at approximately −70° C. until analysis.
Plasma (100 μL) was precipitated with 400 μL of 0.1% formic acid in acetonitrile containing the internal standard (100 ng/mL pneumocandin). The samples were then capped and vortexed for about 30 seconds followed by centrifugation at 14,000 rpm at room temperature for 10 minutes. Following centrifugation 200 μL of supernatant was transferred to plastic autosampler vials containing 200 μL of 0.1% formic acid in water and vortexed. Samples were then analyzed by LCMSMS.
All pharmacokinetic calculations were performed using WinNonlin version 4.1 (Pharsight Corp) by noncompartmental analysis.

Candida spp. = assay: MIC values versus Candida spp. at 24 and 48 hours; assay type: cell-based; details: presence and absence of 50% human serum
Experimental: (§1) MIC values (μg/mL) of anidulafungin, caspofungin, amphotericin B, compound 1, and compound 16 against various Candida species in the presence and absence of 50% human serum were obtained as follows.
(§2) Test organisms were obtained from the American Type Culture Collection (Manassas, Va.). The isolates were maintained at −80° C., then thawed and sub-cultured prior to testing.
(§3) The MIC assay method followed the procedure described by the Clinical and Laboratory Standards Institute and employed automated liquid handlers to conduct serial dilutions and liquid transfers. The wells in columns 1-12 in standard 96-well microdilution plates were filled with 150 μL of DMSO. These would become the ‘mother plates’ from which ‘daughter’ or test plates would be prepared. The drugs (150 μL at 80× the desired top concentration in the test plates) were dispensed into the appropriate well in column 1 of the mother plates and mixed. Serial 1:1 dilutions were made through Column 11 in the “mother plate”. The wells of column 12 contained no drug and were the organism growth control wells. […]
(§4) Plates were covered with a lid, placed in plastic bags, and incubated at 35° C. The Candida isolates were read after 24 h incubation and again at 48 h. […]
(§5) For Candida species, the Minimal Inhibitory Concentration (MIC) was read per CLSI guidelines.

Candida glabrata = assay: MIC versus a strain of Candida glabrata in 50% human serum; assay type: cell-based
Experimental: as §1, §2, §3, §4, §5

[2] = Candida albicans, R303, ip, 24 h, Fifth run, IP 0.5 mg/kg, read-out: Difference from 24-h control
[3] = Candida albicans, R303, ip, 24 h, Fifth run, IP 1.5 mg/kg, read-out: Difference from 24-h control
[4] = Candida albicans, R303, ip, 24 h, Fifth run, IP 4.5 mg/kg, read-out: Difference from 24-h control
[5] = Fifth run, IP 0.5 mg/kg, kidneys 24 h after infection
[6] = Fifth run, IP 1.5 mg/kg, kidneys 24 h after infection
[7] = Fifth run, IP 4.5 mg/kg, kidneys 24 h after infection
[8] = beagle dogs, 1.4 mg/kg intravenous

Structure (SMILES)	log reduction at 0.5 mg/kg (C. albicans R303; [2])	log reduction at 1.5 mg/kg (C. albicans R303; [3])	log reduction at 4.5 mg/kg (C. albicans R303; [4])	Mean log10 CFU/kidneys (±SEM) (C. albicans R303; [5])	Mean log10 CFU/kidneys (±SEM) (C. albicans R303; [6])	Mean log10 CFU/kidneys (±SEM) (C. albicans R303; [7])	overall performance in reducing C. albicans CFUs in the kidneys of the mice (C. albicans R303)	CI [1]	activity against Candida strains relative to anidulafungin (MIC) (Candida spp.)	activity against a strain of Candida glabrata in comparison to anidulafungin (Candida glabrata)	also measured
CCCCCOc1ccc(-c2ccc(-c3ccc(C(=O)N[C@H]4C[C@@H](O)C(NCC[N+](C)(C)C)NC(=O)C5[C@@H](O)[C@@H](C)CN5C(=O)C([C@@H](C)O)NC(=O)C([C@H](O)[C@@H](O)c5ccc(O)cc5)NC(=O)C5C[C@@H](O)CC5C(=O)C([C@@H](C)O)NC4=O)cc3)cc2)cc1 (stereo partly shown) [compound 16]	3.22	3.74	4.08	1.91 ± 0.34 log10 CFU/kidneys	1.39 ± 0.16 log10 CFU/kidneys	1.05 ± 0.36 log10 CFU/kidneys	performed strongly	0.365 ± 0.014 mL/min/kg	retain their activity	superior activity	half-life ([1]; plasma): 27.6 ± 1.11 h; Vd ([1]; plasma): 0.874 ± 0.0639 L/kg
CCCCCOc1ccc(-c2ccc(-c3ccc(C(=O)N[C@H]4C[C@@H](O)C(OCC[N+](C)(C)C)NC(=O)C5[C@@H](O)[C@@H](C)CN5C(=O)C([C@@H](C)O)NC(=O)C([C@H](O)[C@@H](O)c5ccc(O)cc5)NC(=O)C5C[C@@H](O)CN5C(=O)C([C@@H](C)O)NC4=O)cc3)cc2)cc1 (stereo partly shown) [compound 1]	1.47	3.58	4.81	3.67 ± 0.07 log10 CFU/kidneys	1.56 ± 0.15 log10 CFU/kidneys	0.33 ± 0.33 log10 CFU/kidneys	performed strongly	0.301 ± 0.0243 mL/min/kg	retain their activity	superior activity	log reduction at 5 mg/kg (C. albicans R303; Candida albicans, R303, ip, 24 h, First run, IP 5 mg/kg, read-out: Difference from 24-h control): 4.8; log reduction at 0.5 mg/kg (C. albicans R303; Candida albicans, R303, ip, 24 h, Second run, IP 0.5 mg/kg, read-out: Difference from 24-h control): 2.08; log reduction at 1.5 mg/kg (C. albicans R303; Candida albicans, R303, ip, 24 h, Second run, IP 1.5 mg/kg, read-out: Difference from 24-h control): 3.05; log reduction at 4.5 mg/kg (C. albicans R303; Candida albicans, R303, ip, 24 h, Second run, IP 4.5 mg/kg, read-out: Difference from 24-h control): 3.9; Mean log10 CFU/kidneys (±SD) (C. albicans R303; First run, IP 5 mg/kg, neutropenic mice, kidneys 24 h after infection): 0.40 ± 0.80 log10 CFU/kidneys; Mean log10 CFU/kidneys (±SEM) (C. albicans R303; Second run, IP 0.5 mg/kg, kidneys 24 h after infection): 2.80 ± 0.11 log10 CFU/kidneys; Mean log10 CFU/kidneys (±SEM) (C. albicans R303; Second run, IP 1.5 mg/kg, kidneys 24 h after infection): 1.83 ± 0.14 log10 CFU/kidneys; Mean log10 CFU/kidneys (±SEM) (C. albicans R303; Second run, IP 4.5 mg/kg, kidneys 24 h after infection): 0.98 ± 0.33 log10 CFU/kidneys; circulating half-life (in words) [1, 8]: surprisingly long circulating half-life; volume of distribution (in words) [1, 8]: surprisingly large volume of distribution; half-life ([1]; beagle, in vivo, iv, 1.4 mg/kg): 53.1 ± 3.93 h; Vd ([1]; in vivo): 1.36 ± 0.0619 L/kg
